Non-standard residues stand in square brackets, D forms with d. Residues, ends and D or L forms follow the SMILES beside them.
Target: T1, rat GalR3 receptor (Rattus norvegicus, UniProt O88626)
T1 construct: expressed in transfected cells; host or cells: COS-7 cells (ATCC CRL 1651), transient electroporation with pCR 3.1; membrane preparation
T1 sequence (O88626 1-370 P53Q/R54G/T57Q/P127Q/R137C/A150G/W176L/A183R/T188A/F210L/C272I/R311C): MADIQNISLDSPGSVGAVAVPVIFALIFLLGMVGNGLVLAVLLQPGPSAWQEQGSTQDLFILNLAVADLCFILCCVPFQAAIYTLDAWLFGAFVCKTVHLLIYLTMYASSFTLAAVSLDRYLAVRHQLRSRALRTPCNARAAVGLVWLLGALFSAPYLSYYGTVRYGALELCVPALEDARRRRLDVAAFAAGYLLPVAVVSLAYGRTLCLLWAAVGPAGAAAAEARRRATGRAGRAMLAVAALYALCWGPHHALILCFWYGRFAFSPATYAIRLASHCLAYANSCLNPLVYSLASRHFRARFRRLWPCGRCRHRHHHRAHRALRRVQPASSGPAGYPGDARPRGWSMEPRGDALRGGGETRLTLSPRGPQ
Experiment: 125I-porcine galanin competition binding to membranes of COS-7 cells transfected with rat GalR3 receptor
Details: FIG. 2, 125I-porcine galanin binding to rat GalR3 membranes
Experimental: Transfection was carried out as follows. Confluent COS-7 cells (ATCC CRL 1651) grown in DMEVI supplemented with 10% fetal calfserum (FCS) with 100 units/ml penicillin and 100 μg/ml streptomycin were split 1:6 into 150 mm dishes (Nunc) three days prior to transfection. On the day of transfection, the cells were approximately 90% confluent and trypsinized off plates and washed two times with PBS without Mg^++ and Ca^++. The cells were resuspended in Krebs Ringer's buffer at a density of approximately 1.2×10^7 cells/ml. […]
To each plate, 5 ml of 5 mM Hepes buffer (pH 7.4), 0.1 mM PMSF, and 0.1 mg/ml bacitracin were added and incubated at room temperature for 15 minutes. […] Protein concentrations were determined using a […] (bicinchoninic acid) method (Pierce, Rockford, Ill.).
Binding of ^125I-porcine-galanin to the membrane preparations was performed in a buffer containing 25 mM Tris-Cl (pH7.4), 1% bovine serim albumin (w/v), 0.1% bacitracin, 2 μg/ml leupeptin and 10 mM MgCl2. […] All data were analyzed using non-linear regression software (Prism, GraphPad, San Diego, Calif.), and the Ki was calculated using the method of Cheng and Prusoff [Biochem. Pharmacol. 22:3099-3108 (1973)].

Row | SMILES | competitive inhibition of the labeled galanin
1 | CC(C)C[C@H](NC(=O)[C@H](CC(C)C)NC(=O)[C@@H](Cc1c[nH]c2ccccc12)NC(=O)[C@H](Cc1ccccc1)NC(=O)[C@@H](Cc1c[nH]c2ccccc12)NC(=O)[C@H](CCC(N)=O)NC(=O)[C@H](CCC(N)=O)NC(=O)[C@@H]1CCCN1C(=O)[C@H](CCCCN)NC(=O)[C@@H]1CCCN1C(=O)[C@@H](CCCNC(=N)N)NC(=O)[C@@H]1CCCN1C(=O)CNC(=O)[C@H](CC(C)C)NC(=O)[C@H](CC(C)C)NC(=O)[C@H](Cc1ccc(O)cc1)NC(=O)CNC(=O)[C@H](C)NC(=O)[C@H](CO)NC(=O)[C@H](CC(N)=O)NC(=O)[C@H](CC(C)C)NC(=O)[C@@H](NC(=O)[C@H](Cc1c[nH]c2ccccc12)NC(=O)CN)[C@@H](C)O)C(N)=O [chimeric galanin peptide C7] (H-GWTLNSAGYLLGP[dR]PKPQQ[dW]F[dW]LL-NH2; N-terminus and C-terminus assumed) | competitive inhibitors
2 | CC[C@H](C)[C@H](NC(=O)[C@H](C)NC(=O)[C@H](Cc1c[nH]cn1)NC(=O)[C@@H]1CCCN1C(=O)CNC(=O)[C@H](CC(C)C)NC(=O)[C@H](CC(C)C)NC(=O)[C@H](Cc1ccc(O)cc1)NC(=O)CNC(=O)[C@H](C)NC(=O)[C@H](CO)NC(=O)[C@H](CC(N)=O)NC(=O)[C@H](CC(C)C)NC(=O)[C@@H](NC(=O)[C@@H](N)Cc1c[nH]c2ccccc12)[C@@H](C)O)C(=O)N[C@@H](CC(=O)O)C(=O)N[C@@H](CC(N)=O)C(=O)N[C@@H](Cc1c[nH]cn1)C(=O)N[C@@H](CCCNC(=N)N)C(=O)N[C@@H](CO)C(=O)N[C@@H](Cc1ccccc1)C(=O)N[C@@H](CO)C(=O)N[C@@H](CC(=O)O)C(=O)N[C@@H](CCCCN)C(=O)N[C@@H](Cc1c[nH]cn1)C(=O)NCC(=O)N[C@@H](CC(C)C)C(=O)N[C@H](C(N)=O)[C@@H](C)O [galanin(2-29)] | competitive inhibitors

Reference: patent US7417122B2, “Mammalian galanin receptors” (Schering Corporation, priority 1997, dated 2008)
